This note sets out measurements from patent US7879853B2, “4,6-disubstituted pyrimidines and their use as protein kinase inhibitors” (Bayer Schering Pharma AG, priority 2004, dated 2011).

For test [1], the system named is phosphorylated GSK3 (Ser9) in MCF7 cells. Briefly: Cellular pGSK3 assay (pGSK3-ELISA). It counts as cell-based. As to conditions: Homo sapiens, 48 h, read-out: GSK3 inhibition (pGSK3-ELISA): IC50. How it is done: In order to study the cellular activity of the compounds according to the invention, an ELISA-based assay has been established for the phosphorylated glycogen synthetase kinase 3, GSK3. The assay is based on a solid phase sandwich ELISA that detects endogenous levels of the phosphorylated GSK3 (BioSource International, Inc.; Catalog #KHO0461). A phospho-GSK3 (Ser9) antibody has been coated onto the microwells. After incubation with cell lysates, the coated antibody captures the phosphorylated GSK3 protein. Following extensive washing, GSK3 polyclonal antibody is added to detect the captured phospho-GSK3 protein. HRP-linked […] antibody (anti-rabbit IgG-HRP) is then used to recognize the bound detection antibody. […]
Cells are harvested and lysed with brief vortexing in cell extraction buffer (10 mM Tris, pH 7.4, 100 mM NaCl, 1 mM EDTA, 1 mM EGTA, 1 mM NaF, 20 mM Na4P2O7, 2 mM Na3VO4, 1% Triton X-100, 10% glycerol, 0.1% SDS, 0.5% deoxycholate, 1 mM PMSF). […] The absorbance is measured at 450 nm (Wallac Victor2; Perkin Elmer, USA) within 30 minutes after adding Stop solution. The analysis of the data is performed using a statistical program (Microsoft Excel, USA) and the inhibition of pGSK3 phosphorylation is determined.

Test [2] has as its target T1, Akt1 (full-length Akt1, active) (Homo sapiens, UniProt P31749).
T1 construct: recombinant full-length human Akt1, containing N-terminal His6 tag; His6 (N); GST (alternative statement of the assay paragraph) (N); purchased Upstate, UK #14-276; host or cells: baculovirus infected Sf21 insect cells
Briefly: Biochemical Akt1 (active) assay (full-length Akt1), flashplate, Crosstide. As to conditions: Crosstide substrate, 100 nM ATP, 60 minutes at 30° C.; read-out: Akt1 inhibition (full-length Akt1, active): IC50. The text has this: For the biochemical Akt1 assay recombinant full-length human Akt1, containing N-terminal His6 tag was cloned and expressed in baculovirus infected Sf21 insect cells. Akt1 is activated with GST-MAPKAP-K2 and PDK1, and repurified on Ni2+/NTA-agrose and glutathioneagarose (Upstate, UK; #14-276).
In order to study the inhibition of Akt1 (full-length version) according to the invention, a flashplate-based assay has been developed.
The full-length Akt1 assay is a biochemical assay using Akt1 N-terminally fused to GST and co-expressed with PDK1 in insect cells. The Akt1 assay is run in 96 well plates by incubating 500 ng/well GST-Akt1, 1 μM Crosstide (N-terminally biotinylated synthetic peptide (KGSGSGRPRTSSFAEG) Upstate, #12-385) as substrate, 10 μl of test compound (test compounds were dissolved as 10 mM solutions in dimethylsulfoxide (DMSO) and subsequently diluted) and 100 nM ATP (including ^33P-ATP) in 100 μl of reaction buffer (50 mM HEPES, pH7.5; 3 mM MgCl2; 3 mM MnCl2; 3 μM Na-Orthovanadat; 1 mM DTT; 1 μg/ml PEG8000) for 60 minutes at 30° C. in 96 well microtiter plates. The reactions are terminated by adding 100 μl stopping buffer (5M NaCl, 35 mM EDTA pH 8,0) for 5 minutes. 190 μl of the reaction mixture are transferred into streptavidin-coated Flashplates (Perkin Elmer, #SMP-103) and incubated for further 30 minutes at room temperature. The plates are washed 3 times by using washing buffer (0.9% NaCl). Relying on the incorporation of ^33P into the peptide substrate crosstide, the detection is based on the specific binding of the biotinylated peptide to the streptavidin-coated surface of scintillator-coated flash plates (NEN, USA; #SMP-103). This phosphorylation is measured by counting the plate for 60 sec. using a plate reader (Wallac Microbeta; Perkin Elmer, USA). The analysis of the data is performed using a biostatistical program (GraphPad Prism, USA).

T1 sequence (P31749 whole entry): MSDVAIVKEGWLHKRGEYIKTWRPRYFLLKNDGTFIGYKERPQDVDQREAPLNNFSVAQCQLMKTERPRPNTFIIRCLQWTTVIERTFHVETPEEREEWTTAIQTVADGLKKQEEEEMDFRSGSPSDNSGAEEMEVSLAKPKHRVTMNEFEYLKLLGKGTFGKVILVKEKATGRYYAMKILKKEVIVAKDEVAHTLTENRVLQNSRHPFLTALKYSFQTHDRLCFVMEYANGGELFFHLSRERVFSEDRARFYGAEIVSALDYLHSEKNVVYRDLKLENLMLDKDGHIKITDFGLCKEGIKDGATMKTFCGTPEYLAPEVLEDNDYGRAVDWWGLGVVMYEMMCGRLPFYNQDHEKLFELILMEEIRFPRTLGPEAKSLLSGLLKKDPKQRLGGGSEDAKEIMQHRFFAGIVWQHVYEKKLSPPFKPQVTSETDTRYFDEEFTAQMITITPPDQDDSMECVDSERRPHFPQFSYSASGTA

As to `CC(C)(N)c1ccc(C(=O)Nc2ccc(Nc3cc(-c4cccc5c4oc4ccccc45)ncn3)cc2)cc1` [Compound 69, 4-(1-Amino-1-methyl-ethyl)-N-[4-(6-dibenzofuran-4-yl-pyrimidin-4-ylamino)-phenyl]-benzamide trifluoracetate], the IC50 was 10 µM in test [1] and at most 1.75 µM in test [2].
